# How the values were obtained:
# Yellow fever virus [1] = assay: Antiviral activity against Yellow fever virus assessed as reduction in cytopathic effect by neutral red uptake assay; assay type: functional, organism-based
# Yellow fever virus [2] = assay: Antiviral activity against Yellow fever virus; assay type: functional, organism-based
# Yellow fever virus [3] = assay: Antiviral activity against Yellow fever virus African green monkey Vero cells assessed as reduction in cytopathic effect; assay type: functional, organism-based
# Yellow fever virus [4] = assay: Antiviral activity against Yellow fever virus 17D assessed as reduction in cytopathic effect incubated for 30 mins; assay type: functional, organism-based; conditions: 0.5 h
# [5] = Cytotoxicity against African green monkey Vero cells assessed as inhibition of cell growth by neutral red uptake assay; assay type: toxicity, cell-based, Chlorocebus sabaeus
# Yellow fever virus [6] = assay: Antiviral activity against Yellow fever virus 17D infected in African green monkey Vero assessed as reduction in cytopathic effect preincubated with compound for 5 mins followed by viral infection and measured at 72 to 120 hrs by neutral red uptake assay; assay type: functional, organism-based
# Yellow fever virus [7] = assay: Antiviral activity against Yellow fever virus 17D infected in African green monkey Vero assessed as reduction in cytopathic effect preincubated with compound for 5 mins followed by viral infection and measured at 72 to 120 hrs by visual analysis; assay type: functional, organism-based
# [8] = Selectivity index, ratio of IC50 for cytotoxicity against African green monkey Vero cells assessed as inhibition of cell growth by neutral red uptake assay to EC50 for antiviral activity against Yellow fever virus 17D infected in African green monkey Vero assessed as reduction in cytopathic effect; assay type: toxicity, cell-based; conditions: read-out: Ratio IC50/EC50
# [9] = Cytotoxicity against African green monkey Vero cells assessed as inhibition of cell growth by visual analysis; assay type: toxicity, cell-based, Chlorocebus sabaeus
# [10] = Selectivity index, ratio of IC50 for cytotoxicity against African green monkey Vero cells assessed as inhibition of cell growth by visual analysis to EC50 for antiviral activity against Yellow fever virus 17D infected in African green monkey Vero assessed as reduction in cytopathic effect; assay type: toxicity, cell-based; conditions: read-out: Ratio IC50/EC50
# [11] = Selectivity index, ratio of CC50 for cytotoxicity against African green monkey Vero cells to EC50 for antiviral activity against Yellow fever virus 17D infected in African green monkey Vero assessed as reduction in cytopathic effect; assay type: toxicity, cell-based; conditions: read-out: Ratio CC50/EC50
# Yellow fever virus [12] = assay: Antiviral activity against Yellow fever virus 17D infected in African green monkey Vero assessed as reduction in cytopathic effect preincubated with compound for 5 mins followed by viral infection and measured at 7 days; assay type: functional, organism-based
# Yellow fever virus [13] = assay: Antiviral activity against Yellow fever virus 17D infected in African green monkey Vero assessed as reduction in cytopathic effect preincubated with compound for 5 mins followed by viral infection and measured at 72 to 120 hrs; assay type: functional, organism-based
# Yellow fever virus [14] = assay: Antiviral activity against Yellow fever virus 17D infected in African green monkey Vero assessed as reduction in virus yield preincubated with compound for 5 mins followed by viral infection and measured at 72 to 120 hrs; assay type: functional; conditions: time 4325-7205 min
# Yellow fever virus [15] = assay: Antiviral activity against Yellow fever virus 17D infected in Huh-7 cells assessed as reduction in cytopathic effect; assay type: functional, organism-based
# Yellow fever virus [16] = assay: Antiviral activity against Yellow fever virus infected in human A549 cells assessed as reduction in virus replication; assay type: functional, organism-based
# [17] = Selectivity index, ratio of CC50 for cytotoxicity against human A549 cells to EC50 for antiviral activity against Yellow fever virus infected in human A549 cells assessed as reduction in virus replication; assay type: toxicity, cell-based; conditions: read-out: Ratio CC50/EC50
# [18] = Selectivity index, ratio of CC50 for cytotoxicity against human Huh-7 cells to EC50 for antiviral activity against wild typeYellow fever virus infected in human Huh-7 cells assessed as reduction in virus replication; assay type: toxicity, cell-based; conditions: read-out: Ratio CC50/EC50
# Yellow fever virus [19] = assay: Antiviral activity against wild typeYellow fever virus infected in human Huh-7 cells assessed as reduction in virus replication; assay type: functional, organism-based
Compound,IC50 [5],EC50 (Yellow fever virus [6]),selectivity ratio [8],other results
NC(=O)C1(N2CCCCC2)CCN(C(=O)CSc2nc3ccccc3o2)CC1,–,–,–,EC50 (Yellow fever virus [1]): 7.4 µM
CCn1c(=O)/c(=C2\Sc3c(F)cccc3N2C)s/c1=C\c1cccc[n+]1C,–,–,–,EC50 (Yellow fever virus [2]): < 1 µM
Nc1c(C(=O)Nc2nnc(-c3ccccc3)s2)sc2nc3c(cc12)CCCCC3,–,–,–,EC50 (Yellow fever virus [3]): 6.97 µM
C/C(=N\Nc1ccccc1)c1sc(-c2cc(Cl)nc(Oc3ccc(Cl)cc3)c2)nc1C,–,–,–,EC50 (Yellow fever virus [4]): 1.6 µM
O=c1[nH]c(Nc2ccc(F)cc2)nnc1Cc1ccc(F)cc1,> 100 µg/mL,> 100 µg/mL,–,–
Cc1ccc(Cc2nnc(Nc3ccccc3F)[nH]c2=O)cc1,> 100 µg/mL,1 µg/mL,> 19,EC50 (Yellow fever virus [7]): 5 µg/mL; IC50 [9]: 43 µg/mL; selectivity ratio [10]: 8.6
COc1ccccc1Nc1nnc(Cc2ccc(C)cc2)c(=O)[nH]1,> 100 µg/mL,0.94 µg/mL,> 31,EC50 (Yellow fever virus [7]): 4.2 µg/mL; selectivity ratio [11]: > 36; IC50 [9]: 27 µg/mL; EC50 (Yellow fever virus [12]): 4.2 µg/mL; EC50 (Yellow fever virus [13]): 13 µM; EC90 (Yellow fever virus [14]): 50 µg/mL; selectivity ratio [10]: 6.4
COc1ccc(OC)c(Nc2nnc(Cc3ccc(C)cc3)c(=O)[nH]2)c1,16 µg/mL,2.9 µg/mL,5.5,–
CC(C)c1ccc(Cc2nnc(NCCN3CCOCC3)[nH]c2=O)cc1,> 100 µg/mL,> 100 µg/mL,–,–
CCOc1ccc(Nc2nnc(Cc3ccc(C)cc3)c(=O)[nH]2)cc1,> 100 µg/mL,> 100 µg/mL,–,–
CCOC(=O)c1ccc(Nc2nnc(Cc3ccc(C)cc3)c(=O)[nH]2)cc1,> 100 µg/mL,> 100 µg/mL,–,–
Cc1ccc(Cc2nnc(Nc3ccc(F)cc3)[nH]c2=O)cc1,> 100 µg/mL,1 µg/mL,> 14,EC50 (Yellow fever virus [7]): 10 µg/mL; IC50 [9]: 51 µg/mL; selectivity ratio [10]: 5.1
Cc1ccc(Cc2nnc(NC3CCCCC3)[nH]c2=O)cc1,> 100 µg/mL,30 µg/mL,> 3.3,–
COc1ccc(Nc2nnc(Cc3ccc(C(C)C)cc3)c(=O)[nH]2)cc1OC,> 38 µg/mL,> 38 µg/mL,–,–
CCOc1ccccc1Nc1nnc(Cc2ccc(C)cc2)c(=O)[nH]1,> 100 µg/mL,> 100 µg/mL,–,–
Cc1ccc(Cc2nnc(Nc3cccc(F)c3)[nH]c2=O)cc1,> 100 µg/mL,1 µg/mL,> 14,EC50 (Yellow fever virus [7]): 6.2 µg/mL; selectivity ratio [11]: > 53; IC50 [9]: 51 µg/mL; EC50 (Yellow fever virus [12]): 6.2 µg/mL; EC50 (Yellow fever virus [13]): 20 µM; EC90 (Yellow fever virus [14]): 65 µg/mL; selectivity ratio [10]: 8.2
Cc1cccc(Nc2nnc(Cc3ccc(F)cc3)c(=O)[nH]2)c1C,> 100 µg/mL,> 100 µg/mL,–,–

Compound,IC50 [5],EC50 (Yellow fever virus [6]),selectivity ratio [8],other results
Cc1ccc(Cc2nn3c(=O)c4ccccc4nc3[nH]c2=O)cc1,> 100 µg/mL,> 100 µg/mL,–,–
CC[C@H](C)[C@@H]1N=C(c2ccccc2)c2cc(Cl)ccc2N(CC(=O)O)C1=O,–,–,–,EC50 (Yellow fever virus [15]): 0.21 µM
Cc1ccc(Cc2nnc(Nc3ccccc3C)[nH]c2=O)cc1,> 100 µg/mL,18 µg/mL,> 5.6,–
CC(=O)Nc1ccc(Nc2nnc(Cc3ccc(C)cc3)c(=O)[nH]2)cc1,> 100 µg/mL,> 100 µg/mL,–,–
C[C@@H]1[C@@H](CO)O[C@@H](n2ccc(N)nc2=O)[C@]1(C)O,–,–,–,EC50 (Yellow fever virus [2]): 0.7 µM
COc1ccc(Nc2nnc(Cc3ccc(C)cc3)c(=O)[nH]2)cc1OC,18 µg/mL,11 µg/mL,1.6,–
Cc1ccc(Cc2nnc(Nc3cccc(C)c3)[nH]c2=O)cc1,> 100 µg/mL,0.48 µg/mL,> 29,EC50 (Yellow fever virus [7]): 10 µg/mL; selectivity ratio [11]: 23; IC50 [9]: 58 µg/mL; EC50 (Yellow fever virus [12]): 10 µg/mL; EC50 (Yellow fever virus [13]): 33 µM; EC90 (Yellow fever virus [14]): 158 µg/mL
Cc1ccc(Cc2nnc(Nc3cc(C)ccc3C)[nH]c2=O)cc1,> 100 µg/mL,23 µg/mL,> 4.3,–
Cc1ccc(Cc2nnc(Nc3ccccc3)[nH]c2=O)cc1,> 100 µg/mL,6.2 µg/mL,> 7.1,EC50 (Yellow fever virus [7]): 7.4 µg/mL; IC50 [9]: 16 µg/mL; selectivity ratio [10]: 2.2
COC(=O)c1ccc(Nc2nnc(Cc3ccc(C)cc3)c(=O)[nH]2)cc1,> 100 µg/mL,> 100 µg/mL,–,–
COc1ccc(Nc2nnc(Cc3ccc(C)cc3)c(=O)[nH]2)c(OC)c1,> 100 µg/mL,1 µg/mL,> 17,EC50 (Yellow fever virus [7]): 3.5 µg/mL; selectivity ratio [11]: 51; IC50 [9]: 58 µg/mL; EC50 (Yellow fever virus [12]): 3.5 µg/mL; EC50 (Yellow fever virus [13]): 9.9 µM; EC90 (Yellow fever virus [14]): 28 µg/mL; selectivity ratio [10]: 17
O=c1cnn([C@@H]2O[C@H](CO)[C@@H](O)[C@H]2O)c(=O)[nH]1 [6-AZAURIDINE],–,–,–,EC50 (Yellow fever virus [2]): 46 µM
O=C1OC2(c3ccccc31)c1cc(I)c(O)c(I)c1Oc1c2cc(I)c(O)c1I [ERYTHROSINE],–,–,–,EC50 (Yellow fever virus [16]): 0.57 µM; selectivity ratio [17]: > 263
NC(=O)c1nc(F)cnc1O [FAVIPIRAVIR],–,–,–,EC50 (Yellow fever virus [2]): 330 µM
NC(=O)c1ncn([C@@H]2O[C@H](CO)[C@@H](O)[C@H]2O)n1 [RIBAVIRIN],–,–,–,selectivity ratio [18]: 58; EC50 (Yellow fever virus [19]): 4.9 µM
CC(C)OC(=O)[C@H](C)N[P@](=O)(OC[C@H]1O[C@@H](n2ccc(=O)[nH]c2=O)[C@](C)(F)[C@@H]1O)Oc1ccccc1 [SOFOSBUVIR],–,–,–,selectivity ratio [18]: 90; EC50 (Yellow fever virus [19]): 4.2 µM

# Source: ChEMBL document CHEMBL5321211, “Synthesis and evaluation of anti-yellow fever virus activity of new 6-aryl-3-R-amino-1,2,4-triazin-5(4H)-ones” (Eur J Med Chem, 2023)
